Measurements reported in patent US4859773A, “Preparation of 1,8-bridged 4-quinoline-3-carboxylic acids” (Bayer Aktiengesellschaft, priority 1985, dated 1989).
≈ marks a conversion by molar mass, not a printed value.

Columns and labels:
Test in all cases: MIC, agar dilution test (Isosensitest medium), Denley multipoint inoculator
Format in all cases: cell-based
[1] = test system: E. coli Neumann; conditions: Escherichia coli
Text: (§1) Agar dilution test (Isosensitest medium)
(§2) Denley multipoint inoculator

[2] = test system: Klebsiella 8085
Text: as §1, §2

[3] = test system: E. coli T 7; conditions: Escherichia coli, T7
Text: as §1, §2

[4] = test system: E. coli A 261; conditions: Escherichia coli, A261
Text: as §1, §2

`Cc1c(F)cc2c(=O)c(C(=O)O)cn3c2c1OCC3` [Example 61] gave an MIC [1] of 0.125 mg/L (≈ 0.475 µM), an MIC [2] of 0.125 mg/L (≈ 0.475 µM) and an MIC [3] of 0.5 mg/L (≈ 1.9 µM). For the same molecule, the MIC [4] was 0.5 mg/L (≈ 1.9 µM).
